The source made the active and inactive calls. The rule behind the calls is not given here.
Key:
[1] = tested on: SK-N-SH; test: Antiproliferative activity against human SK-N-SH cells after 72 hrs by MTT assay; format: functional, cell-based
[2] = tested on: MGC-803; test: Antiproliferative activity against human MGC803 cells after 72 hrs by MTT assay; format: functional, cell-based; conditions: MGC-803, 72 h
[3] = tested on: HepG2; test: Antiproliferative activity against human HepG2 cells after 72 hrs by MTT assay; format: functional, cell-based; conditions: HepG2, 72 h
[4] = tested on: SK-N-SH; test: Induction of apoptosis in human SK-N-SH cells assessed as late apoptotic cells at 10 uM by Annexin V-FITC/propidium iodide staining based flow cytometry (reference value: 1.7%); format: functional
[5] = tested on: SK-N-SH; test: Cell cycle arrest in human SK-N-SH cells assessed as G2/M phase accumulation at 2.5 uM after 24 hrs by FITC/propidium iodide staining based flow cytometry (reference value: 6.03%); format: functional
[6] = tested on: SK-N-SH; test: Induction of apoptosis in human SK-N-SH cells assessed as early apoptotic cells at 1.25 uM by Annexin V-FITC/propidium iodide staining based flow cytometry (reference value: 7.1%); format: functional
[7] = tested on: SK-N-SH; test: Induction of apoptosis in human SK-N-SH cells assessed as live cells at 2.5 uM by Annexin V-FITC/propidium iodide staining based flow cytometry (reference value: 90.9%); format: functional
[8] = tested on: SK-N-SH; test: Induction of apoptosis in human SK-N-SH cells assessed as necrotic cells at 20 uM by Annexin V-FITC/propidium iodide staining based flow cytometry (reference value: 0.3%); format: functional
[9] = tested on: SK-N-SH; test: Induction of apoptosis in human SK-N-SH cells assessed as cell rounding at 5 to 10 uM after 24 hrs by Hoechst 33258 staining based fluorescence microscopic analysis; format: functional
[10] = tested on: SK-N-SH; test: Cell cycle arrest in human SK-N-SH cells assessed as S phase accumulation at 2.5 uM after 24 hrs by FITC/propidium iodide staining based flow cytometry (reference value: 37.4%); format: functional
[11] = tested on: SK-N-SH; test: Induction of apoptosis in human SK-N-SH cells assessed as late apoptotic cells at 20 uM by Annexin V-FITC/propidium iodide staining based flow cytometry (reference value: 1.7%); format: functional
[12] = tested on: SK-N-SH; test: Induction of apoptosis in human SK-N-SH cells assessed as increase in caspase-3 expression at 5 to 10 uM after 24 hrs by Western blot analysis; format: functional, cell-based
[13] = tested on: SK-N-SH; test: Cell cycle arrest in human SK-N-SH cells assessed as S phase accumulation at 5 uM after 24 hrs by FITC/propidium iodide staining based flow cytometry (reference value: 37.4%); format: functional
[14] = tested on: SK-N-SH; test: Induction of apoptosis in human SK-N-SH cells assessed as early apoptotic cells at 5 uM by Annexin V-FITC/propidium iodide staining based flow cytometry (reference value: 7.1%); format: functional
[15] = tested on: SK-N-SH; test: Cell cycle arrest in human SK-N-SH cells assessed as G1/G0 phase accumulation at 2.5 uM after 24 hrs by FITC/propidium iodide staining based flow cytometry (reference value: 57.72%); format: functional
[16] = tested on: SK-N-SH; test: Induction of apoptosis in human SK-N-SH cells assessed as live cells at 5 uM by Annexin V-FITC/propidium iodide staining based flow cytometry (reference value: 90.9%); format: functional
[17] = tested on: SK-N-SH; test: Induction of apoptosis in human SK-N-SH cells assessed as necrotic cells at 1.25 uM by Annexin V-FITC/propidium iodide staining based flow cytometry (reference value: 0.3%); format: functional
[18] = tested on: SK-N-SH; test: Induction of apoptosis in human SK-N-SH cells assessed as necrotic cells at 2.5 uM by Annexin V-FITC/propidium iodide staining based flow cytometry (reference value: 0.3%); format: functional
[19] = tested on: SK-N-SH; test: Induction of apoptosis in human SK-N-SH cells assessed as late apoptotic cells at 5 uM by Annexin V-FITC/propidium iodide staining based flow cytometry (reference value: 1.7%); format: functional
[20] = tested on: SK-N-SH; test: Cell cycle arrest in human SK-N-SH cells assessed as G1/G0 phase accumulation at 10 uM after 24 hrs by FITC/propidium iodide staining based flow cytometry (reference value: 57.72%); format: functional
[21] = tested on: SK-N-SH; test: Induction of apoptosis in human SK-N-SH cells assessed as early apoptotic cells at 10 uM by Annexin V-FITC/propidium iodide staining based flow cytometry (reference value: 7.1%); format: functional
[22] = tested on: SK-N-SH; test: Induction of apoptosis in human SK-N-SH cells assessed as early apoptotic cells at 20 uM by Annexin V-FITC/propidium iodide staining based flow cytometry (reference value: 7.1%); format: functional
[23] = tested on: SK-N-SH; test: Cell cycle arrest in human SK-N-SH cells assessed as S phase accumulation at 10 uM after 24 hrs by FITC/propidium iodide staining based flow cytometry (reference value: 37.4%); format: functional
[24] = tested on: GES1; test: Cytotoxicity against human GES-1 cells assessed as cell growth inhibition after 72 hrs by MTT assay; format: cell-based; conditions: GES1, 72 h
[25] = tested on: SK-N-SH; test: Induction of apoptosis in human SK-N-SH cells assessed as live cells at 1.25 uM by Annexin V-FITC/propidium iodide staining based flow cytometry (reference value: 90.9%); format: functional
[26] = tested on: SK-N-SH; test: Induction of apoptosis in human SK-N-SH cells assessed as chromatin shrinkage at 5 to 10 uM after 24 hrs by Hoechst 33258 staining based fluorescence microscopic analysis; format: functional, cell-based
[27] = tested on: SK-N-SH; test: Cell cycle arrest in human SK-N-SH cells assessed as G1/G0 phase accumulation at 5 uM after 24 hrs by FITC/propidium iodide staining based flow cytometry (reference value: 57.72%); format: functional
[28] = tested on: SK-N-SH; test: Cell cycle arrest in human SK-N-SH cells assessed as G2/M phase accumulation at 10 uM after 24 hrs by FITC/propidium iodide staining based flow cytometry (reference value: 6.03%); format: functional
[29] = tested on: SK-N-SH; test: Induction of apoptosis in human SK-N-SH cells assessed as formation of apoptotic bodies at 5 to 10 uM after 24 hrs by Hoechst 33258 staining based fluorescence microscopic analysis; format: functional, cell-based
[30] = tested on: SK-N-SH; test: Induction of apoptosis in human SK-N-SH cells assessed as late apoptotic cells at 2.5 uM by Annexin V-FITC/propidium iodide staining based flow cytometry (reference value: 1.7%); format: functional
[31] = tested on: SK-N-SH; test: Induction of apoptosis in human SK-N-SH cells assessed as early apoptotic cells at 2.5 uM by Annexin V-FITC/propidium iodide staining based flow cytometry (reference value: 7.1%); format: functional
[32] = tested on: SK-N-SH; test: Induction of apoptosis in human SK-N-SH cells assessed as necrotic cells at 10 uM by Annexin V-FITC/propidium iodide staining based flow cytometry (reference value: 0.3%); format: functional
[33] = tested on: SK-N-SH; test: Cell cycle arrest in human SK-N-SH cells assessed as G1/G0 phase accumulation after 24 hrs by FITC/propidium iodide staining based flow cytometry; format: functional
[34] = tested on: SK-N-SH; test: Cell cycle arrest in human SK-N-SH cells assessed as G2/M phase accumulation at 5 uM after 24 hrs by FITC/propidium iodide staining based flow cytometry (reference value: 6.03%); format: functional
[35] = tested on: SK-N-SH; test: Induction of apoptosis in human SK-N-SH cells assessed as live cells at 10 uM by Annexin V-FITC/propidium iodide staining based flow cytometry (reference value: 90.9%); format: functional
[36] = tested on: SK-N-SH; test: Induction of apoptosis in human SK-N-SH cells assessed as necrotic cells at 5 uM by Annexin V-FITC/propidium iodide staining based flow cytometry (reference value: 0.3%); format: functional
[37] = tested on: SK-N-SH; test: Induction of apoptosis in human SK-N-SH cells assessed as increase in p53 expression at 5 to 10 uM after 24 hrs by Western blot analysis; format: functional, cell-based
[38] = tested on: SK-N-SH; test: Induction of apoptosis in human SK-N-SH cells assessed as late apoptotic cells at 1.25 uM by Annexin V-FITC/propidium iodide staining based flow cytometry (reference value: 1.7%); format: functional
[39] = tested on: SK-N-SH; test: Induction of apoptosis in human SK-N-SH cells assessed as decrease in pro-caspase-3 expression at 5 to 10 uM after 24 hrs by Western blot analysis; format: functional, cell-based
[40] = tested on: SK-N-SH; test: Induction of apoptosis in human SK-N-SH cells assessed as live cells at 20 uM by Annexin V-FITC/propidium iodide staining based flow cytometry (reference value: 90.9%); format: functional

COc1cccc(Cn2cc(CNc3ccc(C(=O)/C=C/c4ccc(Cl)cc4)cc3)nn2)c1
IC50 [1]: 21.2 µM
IC50 [2]: 38.6 µM
IC50 [3]: 34.7 µM

O=C(/C=C/c1ccc(F)cc1)c1ccc(NCc2cn(Cc3ccccc3)nn2)cc1
IC50 [1]: 42.4 µM
IC50 [2]: 40.2 µM
IC50 [3]: 38.8 µM

O=C(/C=C/c1cc(F)cc(F)c1)c1ccc(NCc2cn(Cc3ccccc3)nn2)cc1
IC50 [1]: 27.3 µM
IC50 [2]: 23.5 µM
IC50 [3]: > 64 µM

COc1ccc(/C=C/C(=O)c2ccc(OCc3cn(Cc4ccccc4)nn3)cc2)c(OC)c1OC
IC50 [1]: 14.5 µM
IC50 [2]: 37.2 µM
IC50 [3]: 9.35 µM

COc1cccc(Cn2cc(CNc3ccc(C(=O)/C=C/c4cccnc4)cc3)nn2)c1
Activity [4]: 18.8%
Activity [5]: 18.71%
Activity [6]: 5.7%
Activity [7]: 91.4%
Activity [8]: 1.6%
IC50 [1]: 1.53 µM
Activity [9]: Active
Activity [10]: 19.11%
Activity [11]: 57.7%
Activity [12]: Active
Activity [13]: 15.65%
Activity [14]: 9.6%
Activity [15]: 67.06%
Activity [16]: 87.1%
Activity [17]: 0.3%
Activity [18]: 0.7%
IC50 [2]: 2.73 µM
Activity [19]: 2.5%
Activity [20]: 81.8%
Activity [21]: 31.9%
Activity [22]: 39.7%
Activity [23]: 10.34%
IC50 [24]: 31.1 µM
Activity [25]: 92.9%
Activity [26]: Active
Activity [27]: 71.27%
Activity [28]: 7.17%
Activity [29]: Active
Activity [30]: 2.1%
Activity [31]: 5.8%
Activity [32]: 0.5%
Activity [33]: Dose-dependent effect
Activity [34]: 14.2%
Activity [35]: 48.8%
Activity [36]: 0.8%
Activity [37]: Active
Activity [38]: 1.2%
IC50 [3]: 2.21 µM
Activity [39]: Active
Activity [40]: 1%

COc1ccccc1/C=C/C(=O)c1ccc(OCc2cn(Cc3ccccc3)nn2)cc1
IC50 [1]: 26.7 µM
IC50 [2]: > 64 µM
IC50 [3]: 24.8 µM

O=C(/C=C/c1cccnc1)c1ccc(NCc2cn(Cc3ccccc3)nn2)cc1
IC50 [1]: 5.15 µM
IC50 [2]: 3.43 µM
IC50 [3]: 4.37 µM

Reference: ChEMBL document CHEMBL4431295 (Medchemcomm, 2016)
